These results are taken from ChEMBL document CHEMBL3046333, “Synthesis and bioevaluation of novel analogues of justicidin A” (Med Chem Res, 2010).

The experiment has as its system HepG2. Briefly: Cytotoxicity against Homo sapiens (human) HepG2 cells after 3 days by MTT assay. The format is functional, cell-based. Conditions: HepG2, 72 h.
In general, IC50 refers to the concentration that gives 50% inhibition. In turn, `CCOc1c2c(c(-c3ccc4c(c3)OCO4)c3cc(OC)c(OC)cc13)C(=O)OC2` came in with an IC50 of 141 µM.

Regarding `CCCOc1c2c(c(-c3ccc4c(c3)OCO4)c3cc(OC)c(OC)cc13)C(=O)OC2`, the half-maximal inhibitory concentration (IC50) is 152 µM. This IC50 and that of the compound before are within 1.5-fold of each other.

Take `CCCCOc1c2c(c(-c3ccc4c(c3)OCO4)c3cc(OC)c(OC)cc13)C(=O)OC2`: the IC50 is 127 µM. This IC50 and that of the compound before are within 1.5-fold of each other.

Take `CCCCCOc1c2c(c(-c3ccc4c(c3)OCO4)c3cc(OC)c(OC)cc13)C(=O)OC2`: the IC50 came to 291 µM. This IC50 lies about 2.3-fold higher than the previous one.

For `COc1cc2c(OCCBr)c3c(c(-c4ccc5c(c4)OCO5)c2cc1OC)C(=O)OC3`, the IC50 came out at 263 µM.

In turn, `COc1cc2c(OCCCBr)c3c(c(-c4ccc5c(c4)OCO5)c2cc1OC)C(=O)OC3` came in with a half-inhibitory concentration (IC50) of 161 µM. This IC50 lies about 1.6-fold lower than the previous one.

The compound `COc1cc2c(OCCCCBr)c3c(c(-c4ccc5c(c4)OCO5)c2cc1OC)C(=O)OC3` registered an IC50 of 155 µM.

In turn, `COc1cc2c(OCCCCCBr)c3c(c(-c4ccc5c(c4)OCO5)c2cc1OC)C(=O)OC3` displayed a half-inhibitory concentration (IC50) of 207 µM.

Compound `COc1cc2c(OCCCCCCBr)c3c(c(-c4ccc5c(c4)OCO5)c2cc1OC)C(=O)OC3` displayed an IC50 of 167 µM.

On to `COc1cc2c(O)c3c(c(-c4ccc5c(c4)OCO5)c2cc1OC)C(=O)OC3` [DIPHYLLIN], for which the concentration for half-maximal inhibition (IC50) is above 500 µM.

Compound `COc1cc([C@@H]2c3cc4c(cc3[C@@H](O[C@@H]3O[C@@H]5CO[C@@H](C)O[C@H]5[C@H](O)[C@H]3O)[C@H]3COC(=O)[C@H]23)OCO4)cc(OC)c1O` [ETOPOSIDE] came in with an IC50 of 427 µM.

Regarding `COc1cc2c(OC)c3c(c(-c4ccc5c(c4)OCO5)c2cc1OC)C(=O)OC3` [JUSTICIDIN A], 163 µM corresponded to half-maximal inhibition (IC50).
